In patent US8557816B2, “Aurora kinase modulators and method of use” (Amgen Inc., priority 2007, dated 2013):

Assays:
[1] = target: T1, AuroraA-TPX2 (Homo sapiens, UniProt O14965); experiment: AuroraA-TPX2 Homogeneous Time Resolved Fluorescent (HTRF) kinase assay; assay type: biochemical; details: average; read-out: AurA_IC50_IP (uM Avg)
T1 construct: 20 μL of AuroraA-TPX2 KD GST for a final volume of about 41 μL; GST
T1 sequence (O14965 133-383 limits assumed): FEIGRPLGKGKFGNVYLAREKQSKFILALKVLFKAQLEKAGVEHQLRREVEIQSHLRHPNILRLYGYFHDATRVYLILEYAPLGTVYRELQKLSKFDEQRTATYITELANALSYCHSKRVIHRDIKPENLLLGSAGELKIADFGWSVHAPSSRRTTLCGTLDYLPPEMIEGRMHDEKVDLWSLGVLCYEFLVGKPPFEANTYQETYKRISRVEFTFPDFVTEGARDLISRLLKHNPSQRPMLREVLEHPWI
T1 sequence (Q9ULW0 1-43 partner limits assumed): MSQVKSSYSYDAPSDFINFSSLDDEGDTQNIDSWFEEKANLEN
Procedure, shortened: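 HTRF read-out (Eu 615 nm to APC 655 nm) of phosphorylated biotin-PLK, detected with 0.02 nM europium anti-phosphoPLK antibody and 0.0005 mg/mL SA-APC after overnight equilibration.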

[2] = target: T2, AuroraB (Homo sapiens, UniProt Q96GD4); experiment: AuroraB Homogeneous Time Resolved Fluorescent (HTRF) kinase assay; assay type: biochemical; details: average; read-out: AurB_IC50_IP (uM Avg)
T2 construct: 20 μL of AuroraB FL H is for a final volume of 41 μL; His
T2 sequence (Q96GD4 whole entry): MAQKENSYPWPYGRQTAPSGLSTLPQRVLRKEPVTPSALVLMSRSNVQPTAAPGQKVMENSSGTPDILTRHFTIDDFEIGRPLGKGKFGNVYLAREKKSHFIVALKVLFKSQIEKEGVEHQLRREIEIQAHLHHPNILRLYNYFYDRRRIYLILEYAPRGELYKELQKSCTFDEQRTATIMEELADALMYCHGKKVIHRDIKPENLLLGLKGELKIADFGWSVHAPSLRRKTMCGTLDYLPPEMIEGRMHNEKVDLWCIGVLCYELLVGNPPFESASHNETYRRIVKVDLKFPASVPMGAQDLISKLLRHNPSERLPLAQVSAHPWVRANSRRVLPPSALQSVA
Procedure, shortened: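 Full-length His-tagged kinase phosphorylates biotinylated Histone H3 (0.1 μM final) with ATP in pH 7.5 HEPES containing MgCl, MnCl, DTT and BSA for about 90 min. EDTA-containing detection mix with SA-APC and Eu-anti-phosphoHistone H3 then equilibrated about 60 min; HTRF read with 320 nm excitation, emissions 615/655 nm.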

SMILES	IC50 [1] [µM]	IC50 [2] [µM]
N#Cc1ccc2c(Sc3ccc(Nc4nnc(-c5ccccc5)c5ccccc45)cc3)ccnc2c1 [compound 208, 4-((4-((4-phenyl-1-phthalazinyl)amino)phenyl)thio)-7-quinolinecarbonitrile]	0.18	0.007
COc1cnc2c(Oc3ccc(Nc4nnc(-c5ccc(C)c(N)c5)c5ccccc45)cc3)ccnc2c1 [compound 209, 4-(3-amino-4-methylphenyl)-N-(4-((7-(methyloxy)-1,5-naphthyridin-4-yl)oxy)phenyl)-1-phthalazinamine]	0.012	0.001
CCc1cc(-c2cc(C)cs2)nnc1Nc1ccc(Oc2ccnc3cc(OC)cnc23)cc1 [compound 210, 4-ethyl-N-(4-((7-(methyloxy)-1,5-naphthyridin-4-yl)oxy)phenyl)-6-(4-methyl-2-thienyl)-3-pyridazinamine]	0.031	0.002
COc1cc2nccc(Oc3ccc(Nc4nnc(-c5ccc(C)cc5)c5ccccc45)cc3)c2cc1C(N)=O [compound 211, 7-(methyloxy)-4-((4-((4-(4-methylphenyl)-1-phthalazinyl)amino)phenyl)oxy)-6-quinolinecarboxamide]	0.006	0.001
COc1cnc2c(Oc3ccc(Nc4nnc(-c5cn[nH]c5)c5ccccc45)cc3)ccnc2c1 [compound 212, N-(4-((7-(methyloxy)-1,5-naphthyridin-4-yl)oxy)phenyl)-4-(1H-pyrazol-4-yl)-1-phthalazinamine]	0.478	0.018
COc1cnc2c(Oc3ccc(Nc4nnc(-c5ccc(OC)c(C)c5)c5ccccc45)cc3)ccnc2c1 [compound 213, 4-(3-methyl-4-(methyloxy)phenyl)-N-(4-((7-(methyloxy)-1,5-naphthyridin-4-yl)oxy)phenyl)-1-phthalazinamine]	0.079	0.011
COc1cnc2c(Oc3ccc(Nc4nnc(-c5ccc(F)c(F)c5)c5ccccc45)cc3)ccnc2c1 [compound 214, 4-(3,4-difluorophenyl)-N-(4-((7-(methyloxy)-1,5-naphthyridin-4-yl)oxy)phenyl)-1-phthalazinamine]	0.085	0.007
COc1cnc2c(Oc3ccc(Nc4nnc(-c5cncnc5)c5ccccc45)cc3)ccnc2c1 [compound 215, N-(4-((7-(methyloxy)-1,5-naphthyridin-4-yl)oxy)phenyl)-4-(5-pyrimidinyl)-1-phthalazinamine]	0.743	0.024
COc1cnc2c(Oc3ccc(Nc4nnc(-c5cnn(C)c5)c5ccccc45)cc3)ccnc2c1 [compound 216, N-(4-((7-(methyloxy)-1,5-naphthyridin-4-yl)oxy)phenyl)-4-(1-methyl-1H-pyrazol-4-yl)-1-phthalazinamine]	0.16	0.006
N#Cc1ccc(-c2nnc(Nc3ccc(Oc4ccnc5cc(C#N)ccc45)cc3)c3ccccc23)cc1 [compound 217, 4-((4-((4-(4-cyanophenyl)-1-phthalazinyl)amino)phenyl)oxy)-7-quinolinecarbonitrile]	0.454	0.016
COc1cnc2c(Oc3ccc(Nc4nnc(-c5ccccc5)c5ccsc45)cc3)ccnc2c1 [compound 218, N-(4-((7-(methyloxy)-1,5-naphthyridin-4-yl)oxy)phenyl)-4-phenylthieno[2,3-d]pyridazin-7-amine]	0.027	0.003
COc1cnc2c(Oc3ccc(Nc4nnc(-c5cccc(Cl)c5)c5ccccc45)cc3)ccnc2c1 [compound 219, 4-(3-chlorophenyl)-N-(4-((7-(methyloxy)-1,5-naphthyridin-4-yl)oxy)phenyl)-1-phthalazinamine]	0.051	0.01
COc1cnc2c(Oc3ccc(Nc4nnc(-c5ccc(F)cc5)c5ccccc45)cc3)ccnc2c1 [compound 220, 4-(4-fluorophenyl)-N-(4-((7-(methyloxy)-1,5-naphthyridin-4-yl)oxy)phenyl)-1-phthalazinamine]	0.047	0.004
CCc1ccc(-c2nnc(Nc3ccc(Oc4ccnc5cc(OC)cnc45)cc3)c3ccccc23)cc1 [compound 221, 4-(4-ethylphenyl)-N-(4-((7-(methyloxy)-1,5-naphthyridin-4-yl)oxy)phenyl)-1-phthalazinamine]	0.026	0.007
COc1cnc2c(Oc3ccc(Nc4nnc(-c5ccc(Cl)cc5)c5ccccc45)cn3)ccnc2c1 [compound 222, 4-(4-chlorophenyl)-N-(6-((7-(methyloxy)-1,5-naphthyridin-4-yl)oxy)-3-pyridinyl)-1-phthalazinamine]	0.047	0.006
COc1cnc2c(Oc3ccc(Nc4nnc(-c5ccnn5C)c5ccccc45)cc3)ccnc2c1 [compound 223, N-(4-((7-(methyloxy)-1,5-naphthyridin-4-yl)oxy)phenyl)-4-(1-methyl-1H-pyrazol-5-yl)-1-phthalazinamine]	1.33	0.039
COc1cnc2c(Oc3ccc(Nc4nnc(-c5ccc(C)c(Cl)c5)c5ccccc45)cc3)ccnc2c1 [compound 224, 4-(3-chloro-4-methylphenyl)-N-(4-((7-(methyloxy)-1,5-naphthyridin-4-yl)oxy)phenyl)-1-phthalazinamine]	0.034	0.011
COc1cc2nccc(Oc3ccc(Nc4nnc(-c5ccccc5)c5ccccc45)cc3)c2cc1C(N)=O [compound 225, 7-(methyloxy)-4-((4-((4-phenyl-1-phthalazinyl)amino)phenyl)oxy)-6-quinolinecarboxamide]	0.023	0.004
COc1cnc2c(Oc3ccc(Nc4nnc(-c5cccc(C(=O)N(C)C)c5)c5ccccc45)cc3)ccnc2c1 [compound 226, N,N-dimethyl-3-(4-((4-((7-(methyloxy)-1,5-naphthyridin-4-yl)oxy)phenyl)amino)-1-phthalazinyl)benzamide]	0.187	0.014
COc1cnc2c(Oc3ccc(Nc4nnc(-c5ccc(OC)c(F)c5)c5ccccc45)cc3)ccnc2c1 [compound 227, 4-(3-fluoro-4-(methyloxy)phenyl)-N-(4-((7-(methyloxy)-1,5-naphthyridin-4-yl)oxy)phenyl)-1-phthalazinamine]	0.051	0.003
COc1cnc2c(Oc3ccc(Nc4nnc(-c5ccc(Cl)cn5)c5ccccc45)cc3)ccnc2c1 [compound 228, 4-(5-chloro-2-pyridinyl)-N-(4-((7-(methyloxy)-1,5-naphthyridin-4-yl)oxy)phenyl)-1-phthalazinamine]	0.034	0.004
CCc1ccc(-c2nnc(Nc3ccc(Oc4ccnc5cc(OC)cnc45)cc3)c3ccccc23)s1 [compound 229, 4-(5-ethyl-2-thienyl)-N-(4-((7-(methyloxy)-1,5-naphthyridin-4-yl)oxy)phenyl)-1-phthalazinamine]	0.024	0.007
c1ccc(-c2nnc(Nc3ccc(Oc4ccnc5c4NCCC5)cc3)c3ccccc23)cc1 [compound 230, 4-phenyl-N-(4-(5,6,7,8-tetrahydro-1,5-naphthyridin-4-yloxy)phenyl)-1-phthalazinamine]	5	0.031
N#Cc1ccc2c(Oc3ccc(Nc4nnc(-c5ccc(Cl)c(C#N)c5)c5ccccc45)cc3)ccnc2c1 [compound 231, 4-((4-((4-(4-chloro-3-cyanophenyl)-1-phthalazinyl)amino)phenyl)oxy)-7-quinolinecarbonitrile]	0.379	0.032
COc1cnc2c(Sc3ccc(Nc4nnc(-c5ccc(Cl)cc5)c5ccccc45)cc3)ccnc2c1 [compound 232, 4-(4-chlorophenyl)-N-(4-((7-(methyloxy)-1,5-naphthyridin-4-yl)thio)phenyl)-1-phthalazinamine]	0.036	0.015
COc1cnc2c(Oc3ccc(Nc4nnc(-c5ccc(Cl)cc5C)c5ccccc45)cc3)ccnc2c1 [compound 233, 4-(4-chloro-2-methylphenyl)-N-(4-((7-(methyloxy)-1,5-naphthyridin-4-yl)oxy)phenyl)-1-phthalazinamine]	0.845	0.021
COc1cnc2c(Oc3ccc(Nc4nnc(-c5ccccc5)cc4C(C)C)cc3)ccnc2c1 [compound 234, 4-(1-methylethyl)-N-(4-((7-(methyloxy)-1,5-naphthyridin-4-yl)oxy)phenyl)-6-phenyl-3-pyridazinamine]	0.173	0.006
COc1cnc2c(Oc3ccc(Nc4nnc(-c5ccc(Cl)nc5)c5ccccc45)cc3)ccnc2c1 [compound 235, 4-(6-chloro-3-pyridinyl)-N-(4-((7-(methyloxy)-1,5-naphthyridin-4-yl)oxy)phenyl)-1-phthalazinamine]	0.123	0.003
COc1cnc2c(Oc3ccc(Nc4nnc(-c5ccc(Cl)c(C)c5)c5ccccc45)cc3)ccnc2c1 [compound 236, 4-(4-chloro-3-methylphenyl)-N-(4-((7-(methyloxy)-1,5-naphthyridin-4-yl)oxy)phenyl)-1-phthalazinamine]	0.027	0.008
